Patent US11413278B2, “Compounds and methods for promoting stress resistance” (priority 2015, dated 2022)
Entries after “also recorded” stand apart in the source; their conditions may differ. Read-outs that look alike come from different tables or passages of the source.

Assays:
human PARP1 = biological target: T1, human PARP1 (Homo sapiens, UniProt P09874); assay: PARP inhibitor assay (HT Fluorescent Homogeneous PARP Inhibition Assay Kit); assay type: biochemical; settings: for L = PARP inhibition: score; for Inhibition of PARP1: 10 μM, in vitro
T1 construct: purchased Trevigen
T1 sequence (P09874 whole entry): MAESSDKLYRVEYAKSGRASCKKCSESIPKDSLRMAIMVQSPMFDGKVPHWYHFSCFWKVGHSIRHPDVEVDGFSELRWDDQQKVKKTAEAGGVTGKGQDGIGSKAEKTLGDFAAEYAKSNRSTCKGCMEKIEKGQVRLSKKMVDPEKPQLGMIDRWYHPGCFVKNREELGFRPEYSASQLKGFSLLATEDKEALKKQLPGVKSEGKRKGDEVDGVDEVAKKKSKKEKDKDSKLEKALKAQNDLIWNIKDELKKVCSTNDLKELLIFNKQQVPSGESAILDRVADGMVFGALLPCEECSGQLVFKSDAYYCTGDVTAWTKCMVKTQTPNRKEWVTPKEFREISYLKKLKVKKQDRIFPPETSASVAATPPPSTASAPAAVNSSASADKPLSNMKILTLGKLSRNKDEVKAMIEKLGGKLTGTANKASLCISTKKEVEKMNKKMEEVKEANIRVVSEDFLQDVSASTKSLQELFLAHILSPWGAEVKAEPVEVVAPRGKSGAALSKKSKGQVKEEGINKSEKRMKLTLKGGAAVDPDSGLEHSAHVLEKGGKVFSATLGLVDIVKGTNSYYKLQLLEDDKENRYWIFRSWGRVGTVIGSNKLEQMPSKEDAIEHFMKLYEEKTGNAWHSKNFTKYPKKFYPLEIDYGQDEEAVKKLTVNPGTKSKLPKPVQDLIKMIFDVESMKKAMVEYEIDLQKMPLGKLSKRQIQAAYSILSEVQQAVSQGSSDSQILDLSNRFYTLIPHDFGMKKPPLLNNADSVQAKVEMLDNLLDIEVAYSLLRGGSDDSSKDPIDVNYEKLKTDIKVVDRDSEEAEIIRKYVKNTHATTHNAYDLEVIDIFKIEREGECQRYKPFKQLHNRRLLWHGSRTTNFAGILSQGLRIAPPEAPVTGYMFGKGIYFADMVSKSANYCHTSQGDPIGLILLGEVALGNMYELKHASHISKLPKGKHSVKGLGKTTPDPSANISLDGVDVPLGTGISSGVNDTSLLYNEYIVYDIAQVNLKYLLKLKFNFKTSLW
Outline: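 Human PARP1 with NAD and activated DNA, compounds at 10 μM final, 30 min at room temperature in dark. Resazurin/diaphorase cycling mix then added for 1 hr in dark before stop buffer; fluorescent homogeneous kit read-out.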

NRF2 [1] = assay: qPCR analysis of NRF2-regulated genes; assay type: cell-based, human; settings: for Potential NRF2 Activation (>=2 target genes induced, by >=1.5-fold): Assay 13(p); for fold induction at 10 µM: Homo sapiens
Outline: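 WI-38 cells treated with compound at 10 μM for 24 hrs, then processed by Cells-to-Ct for RNA isolation, RT and qPCR of NRF2-regulated genes (HMOX1, NQO1, GCLC, GSTM1). Expression normalized to B2M, PPIA and GAPDH; siRNA knockdown of FOXO3 or NRF2 (10 nM) preceded treatment in some runs.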

NRF2 [2] = assay: in vitro; assay type: cell-based, human
LC3A/B puncta = assay: Autophagy induction analysis (LC3A/B puncta immuno-staining); assay type: cell-based, human; settings: for Exp. 2, induction of LC3A/B puncta (Up), overlapped signals normalized by total number of nuclei in the fields / Exp. 2, normalized change of nuclei numbers (Less cells): 20X objective, lysosomal LAMP co-staining
Outline: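 WI-38 cells were treated with compounds for 24 hrs, then immunostained for LC3A/B (overnight, 4° C) with DAPI counterstain and imaged by high-content microscopy. Experiment 1 used total puncta intensity. Experiment 2 used LAMP2-colocalized (lysosomal) puncta. Intensity was normalized to nuclei count.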

[3] = 24 h, Assay 12(o), at 10 uM, qPCR, read-out: Induction of NRF2-regulated genes: HMOX1 normalized fold-change
[4] = 24 h, Assay 12(o), at 10 uM, qPCR, read-out: Induction of NRF2-regulated genes: NQO1 normalized fold-change
[5] = rounded fold change, WI-38 cells, 10 μM, 24 hrs (RP11 for Gr-1D, RP29 for Gr-4D), read-out: Summary of effects on NRF2-regulated genes: HMOX1
[6] = rounded fold change, WI-38 cells, 10 μM, 24 hrs (RP29 for Gr-4D), read-out: Summary of effects on NRF2-regulated genes: NQO1
[7] = 10 μM, 24 hrs, WI-38, read-out: Expression of at least two NRF2 target genes
[8] = 10 μM, 24 hrs, WI-38 cells, qPCR, normalized to B2M, n = 4, read-out: HMOX1 expression, normalized fold change (NRF2-regulated gene)
[9] = 10 μM, 24 hrs, WI-38 cells, qPCR, normalized to B2M, n = 4, read-out: NQO1 expression, normalized fold change (NRF2-regulated gene)
[10] = WI-38 cells, 10 μM, 24 hrs, n=4, qPCR normalized by B2M, read-out: GCLC Normalized fold change
[11] = WI-38 cells, 10 μM, 24 hrs, n=4, qPCR normalized by B2M, read-out: GSTM1 Normalized fold change
[12] = WI-38 cells, 10 μM, 24 hrs, n=4, qPCR normalized by B2M, read-out: HMOX1 Normalized fold change
[13] = WI-38 cells, 10 μM, 24 hrs, n=4, qPCR normalized by B2M, read-out: NQO1 Normalized fold change
[14] = 10 μM, 24 hrs, WI-38 cells, qPCR, normalized to B2M, n = 4
[15] = WI-38 cells, 10 μM, 24 hrs, n=4, qPCR normalized by B2M
[16] = rounded fold change, WI-38 cells, 10 μM, 24 hrs (RP29 for Gr-4D)
[17] = Exp. 1, 10 μM, 10X objective, WI-38 cells
[18] = 24 h, Assay 12(o), at 10 uM, qPCR, read-out: Induction of NRF2-regulated genes: GCLC normalized fold-change
[19] = rounded fold change, WI-38 cells, 10 μM, 24 hrs, read-out: Summary of effects on NRF2-regulated genes: GCLC
[20] = 10 μM, 24 hrs, WI-38 cells, qPCR, normalized to B2M, n = 4, read-out: GCLC expression, normalized fold change (NRF2-regulated gene)
[21] = 10 uM, with H2O2, NRF2 knockdown in WI-38 cells, YES = resistance reduced by at least 50%, partial = 25% to 50%

Structure (SMILES)	L = PARP inhibition (human PARP1)	F = Potential NRF2 Activation (NRF2 [1]; 2-point score)	Potential NRF2 Activation (>=2 target genes induced, by >=1.5-fold) (NRF2 [1])	fold induction at 10 µM (NRF2 [1]; [3])	fold induction at 10 µM (NRF2 [1]; [4])	fold induction at 10 µM (NRF2 [1]; [5])	fold induction at 10 µM (NRF2 [1]; [6])	fold induction at 10 µM (NRF2 [1]; [7])	fold induction at 10 µM (NRF2 [1]; [8])	fold induction at 10 µM (NRF2 [1]; [9])	fold induction at 10 µM (NRF2 [1]; [10])	fold induction at 10 µM (NRF2 [1]; [11])	fold induction at 10 µM (NRF2 [1]; [12])	fold induction at 10 µM (NRF2 [1]; [13])	F = Potential NRF2 Activation (NRF2 [1]; summary score)	J = NRF2-dependency for H2O2-resistance (NRF2 [2]; score)	J = NRF2-dependency for H2O2-resistance (NRF2 [2]; summary score)	H = Potential Autophagy Induction (LC3A/B puncta; score)	H = Potential Autophagy Induction (LC3A/B puncta; summary score)	other results
CC1C(=O)C(C)C(c2cc(Cl)ccc2O)NC1c1cc(Cl)ccc1O (stereo not drawn) [O6]	0	2	YES	3.85	1.62	3.85	1.62	> 1.5	3.85	1.62	1.06	0.965	3.85	1.62	2	0	0	0	0	–
O=C(Nc1nc(C23CC4CC(CC(C4)C2)C3)cs1)C(c1ccccc1)c1ccccc1 [O10]	0	0	–	–	–	–	–	–	–	–	0.933	1.03	0.755	0.937	0	0	0	0	0	–
COc1cc2c(no[n+]2[O-])n2nnnc12 [O11]	0	0	–	–	–	–	–	–	–	–	–	–	–	–	0	0	0	1	1	Induction of at least two NRF2-regulated genes (HMOX1, NQO1, GCLC, GSTM1) (NRF2 [1]; 10 μM, 24 hrs, WI-38): could induce expression of at least two genes; GSTM1 expression, normalized fold change (NRF2-regulated gene) (NRF2 [1]; [14]): GSTM1 1.30, fold; NQO1 expression, normalized fold change (NRF2-regulated gene) (NRF2 [1]; [14]): NQO1 2.03, fold; Induction of NRF2-regulated genes: GSTM1 normalized fold-change (NRF2 [1]; Assay 12(o), at 10 uM, qPCR): GSTM1 1.30, fold-change; Induction of NRF2-regulated genes: NQO1 normalized fold-change (NRF2 [1]; Assay 12(o), at 10 uM, qPCR): NQO1 2.03, fold-change; GCLC Normalized fold change (NRF2 [1]; [15]): 1.333 fold change; GSTM1 Normalized fold change (NRF2 [1]; [15]): 1.304 fold change; HMOX1 Normalized fold change (NRF2 [1]; [15]): 1.069 fold change; NQO1 Normalized fold change (NRF2 [1]; [15]): 2.027 fold change; Summary of effects on NRF2-regulated genes: GSTM1 (NRF2 [1]; [16]): 1.30,; Summary of effects on NRF2-regulated genes: NQO1 (NRF2 [1]; [16]): 2.03,; Assay 15: Potential autophagy induction by LC3A/B puncta assays (LC3A/B puncta; 10 uM & 20 uM, YES/NO): YES; Exp. 1, induction of LC3A/B puncta (Up), total intensity normalized by total number of nuclei in the fields (LC3A/B puncta; [17]): p < 0.01; Up, 315%,; Exp. 1, normalized change of nuclei numbers (Less cells) (LC3A/B puncta; [17]): Less cells, 64%,; Exp. 2, induction of LC3A/B puncta (Up), overlapped signals normalized by total number of nuclei in the fields (LC3A/B puncta; Exp. 2, 10 μM, WI-38 cells): p < 0.001; Up, 193%,; Exp. 2, normalized change of nuclei numbers (Less cells) (LC3A/B puncta; Exp. 2, 10 μM, WI-38 cells): Less cells, 71%,; Exp. 2, induction of LC3A/B puncta (Up), overlapped signals normalized by total number of nuclei in the fields (LC3A/B puncta; Exp. 2, 20 μM, WI-38 cells): p < 0.001; Up, 159%,; Exp. 2, normalized change of nuclei numbers (Less cells) (LC3A/B puncta; Exp. 2, 20 μM, WI-38 cells): Less cells, 69%,
CCCC(=O)Nc1ccc(-c2cn3cccc(C)c3n2)cc1 [O12]	0	0	–	0.76	0.66	0.82	0.69	–	0.82	0.69	0.531	1.21	0.821	0.692	0	0	0	0	0	Inhibition of PARP1 (human PARP1): inhibitors of PARP1; fold induction at 10 µM (NRF2 [1]; [18]): 0.54; fold induction at 10 µM (NRF2 [1]; [19]): 0.53; fold induction at 10 µM (NRF2 [1]; [20]): 0.53
O=C(c1ccc([N+](=O)[O-])o1)N1CCc2ccccc21 [O13]	0	2	YES	5.52	2.95	5.52	2.95	> 1.5	5.52	2.95	1.99	1.31	5.52	2.95	2	0	0	0	0	fold induction at 10 µM (NRF2 [1]; [18]): 1.99; fold induction at 10 µM (NRF2 [1]; 24 h, Assay 12(o), at 10 uM, qPCR, read-out: Induction of NRF2-regulated genes: GSTM1 normalized fold-change): 1.31; fold induction at 10 µM (NRF2 [1]; rounded fold change, WI-38 cells, 10 μM, 24 hrs (RP29 for Gr-4D), read-out: Summary of effects on NRF2-regulated genes: GSTM1): 1.31; fold induction at 10 µM (NRF2 [1]; [19]): 1.99; fold induction at 10 µM (NRF2 [1]; [20]): 1.99; fold induction at 10 µM (NRF2 [1]; 10 μM, 24 hrs, WI-38 cells, qPCR, normalized to B2M, n = 4, read-out: GSTM1 expression, normalized fold change (NRF2-regulated gene)): 1.31
Oc1ncnc2sc3c(c12)CCC3 [O14]	1	0	–	–	–	–	–	–	–	–	1.07	1.53	1.11	0.871	0	0	0	0	0	Inhibition of PARP1 (human PARP1): inhibitors of PARP1; also recorded: identified PARP inhibitor
CCCN1C/C(=C\c2ccc(F)cc2)C(=O)/C(=C/c2ccc(F)cc2)C1 [O15]	0	2	YES	48.7	1.6	48.7	1.6	> 1.5	48.7	1.6	1.23	0.995	48.7	1.6	2	1	1	0	0	NRF2-dependency for H2O2-resistance, at 10 uM - with H2O2, 1st experiment (NRF2 [2]; 10 uM, experiment 1 (1st), with H2O2): 1st, YES;; NRF2-dependency for H2O2-resistance, at 10 uM - with H2O2, 2nd experiment (NRF2 [2]; 10 uM, experiment 2 (2nd), with H2O2): 2nd, YES.; NRF2-dependency for H2O2-resistance, at 10 uM (experiment 3) - with & without H2O2 (NRF2 [2]; 10 uM, experiment 3, with & without H2O2): YES; NRF2-dependency for H2O2-resistance (experiment 3) (NRF2 [2]; 10 uM, with & without H2O2, NRF2 knockdown in WI-38 cells, YES = resistance reduced by at least 50%, partial = 25% to 50%): YES; NRF2-dependency for H2O2-resistance, 1st experiment (NRF2 [2]; [21]): YES;; NRF2-dependency for H2O2-resistance, 2nd experiment (NRF2 [2]; [21]): YES.; Assay 17: NRF2-dependency for H2O2-resistance (NRF2 [2]; 10 uM, YES/NO): YES; Reduction of H2O2-resistance capacity upon NRF2 knockdown, on average (NRF2 [2]; 3 of 3 experiments): ~90%; NRF2-dependency of H2O2-resistance (NRF2 siRNA knockdown) (NRF2 [2]; at least 2 of 3 independent experiments): significantly attenuate
